Source: US20030087014A1, “Enhanced thermal inactivation of pathogen in a nutriment by acidulant” (Mionix Corp., priority 2001, published 2003)

System: human skin
Test: Contact of acidic solution with human skin and nose
Settings: solution with a pH of less than 0.5

With `O=S(=O)(O)O` [sulfuric acid] the “Irritation of hand put into the solution” value was “an irritation would occur within a relatively short span of time”.
